US20050079613A1, “Downregulation of cell surface glycoproteins by a family of human ubiquitin ligases” (Oregon Health & Science University, priority 2002, published 2005)

Tested on: HLA-A2.1
Experiment: Pulse-chase of HLA-A2.1 maturation and turnover in transfected HeLa cells
Assay type: cell-based, human
Conditions: for effect of inhibitor on degradation of HLA-A2.1 heavy chains: MARCH-IV and HLA-A2.1 co-transfected cells, concanamycin A 50 nM, lactacystin 20 μM
Description: Metabolic labeling, immunoprecipitation and Western blotting. HeLa cells were grown to 80% confluency in 100 mm tissue culture dishes and transfected as above. Cells were incubated in serum-free and methionine-free medium for 30 minutes, and metabolically labeled with ^35S-cysteine/^35S-methionine (250 μCi, Amersham) for the indicated time. After labeling, cells were washed twice with PBS and either lysed immediately in PBS containing 1% Triton X-100 and protease inhibitors (Roche, Indianapolis, Ind.), or the label was chased with excess (2 mM) unlabeled cysteine and methionine in the presence or absence of specific inhibitors for the indicated time. The cell lysates were precleared with protein A/G agarose beads and incubated with 3 μg of antibody for one hour and followed by two hours incubation with protein A/G beads. Immunoprecipated proteins were washed five times with 0.1% Triton X-100 in PBS. All samples were boiled in SDS buffer and analyzed by SDS-PAGE gel electrophoresis. Where indicated, samples were treated with Endoglycosidase H (Roche) according to manufacturer's instructions. Briefly, samples were initially denatured at 100° C. in 40 μl of 0.3% SDS, 150 mM 2-mercaptoethanol, 50 mM sodium acetate, pH 5.5 and incubated with 4 milli-Units of Endo H overnight at 37° C. All samples were boiled in SDS buffer and analyzed by SDS-PAGE gel electrophoresis. Gels were fixed, dried and exposed to Kodak BioMax MR film. Western blotting was accomplished using the WesternBreeze Chemiluminescent Detection System (Invitrogen) following Semi-dry transfer to PVDF membranes (Millipore, Bedford, Mass.).
To determine the ultimate fate of the MHC I molecules in the presence of MARCH-IV, the maturation and turnover of co-transfected HLA-A2.1 in pulse-chase experiments (FIG. 12B) was followed. In the absence of MARCH-IV, HLA-A2.1 molecules acquired Endo H resistance after 1 hour of chase indicating exit from the ER. […]

| SMILES | effect of inhibitor on degradation of HLA-A2.1 heavy chains | effect of inhibitor on HLA-A2.1 in the absence of MARCH-IV (cells without MARCH-IV) |
| --- | --- | --- |
| C/C=C/[C@H]1O[C@@](O)([C@@H](C)[C@H](O)[C@H](C)[C@H]2OC(=O)/C(OC)=C/C(C)=C/[C@@H](C)[C@@H](O)[C@@H](CC)[C@@H](O)[C@H](C)C/C(C)=C/C=C/[C@@H]2OC)C[C@@H](O[C@H]2C[C@@H](O)[C@H](OC(N)=O)[C@@H](C)O2)[C@@H]1C [concanamycin A] | delayed the degradation of HLA-A2.1 | no effect |
| CC(=O)N[C@@H](CSC(=O)[C@]1([C@@H](O)C(C)C)NC(=O)[C@H](C)[C@@H]1O)C(=O)O [lactacystin] | did not increase recovery of HLA-A2.1 heavy chains |  |
